Source: the supplement of paper PMC11061612

Legend:
Assay in all cases: combination Emax (second highest fraction inhibited in the dose matrix, 72 h); higher = more inhibition; extreme values may be limits of the assay
[1] = tested on: Hs-766T (Pancreatic Carcinoma)
In short: (§1)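 After 24 hours at 37°C and 5% CO2 in 1536-well plates, cells in DMEM/F12 or RPMI plus 10% FBS received two-drug dose matrices for 72 hours. Viability came from CellTiter-Glo 2.0 luminescence and was scaled as inhibition, anchored at 0 by vehicle wells and at 1 by blank wells. Combination Emax is taken as the second-highest inhibition in the matrix, and Bliss excess as the observed combination effect less EA + EB − EA·EB, with EA and EB the single-agent effects.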

[2] = tested on: Ca9-22 (Head and Neck Carcinoma)
In short: as §1

UACC-62 (Melanoma) = tested on: UACC-62 (Melanoma)
In short: as §1

[3] = tested on: KARPAS-299 (T-Cell Non-Hodgkin's Lymphoma)
In short: as §1

TGW (Neuroblastoma) = tested on: TGW (Neuroblastoma)
In short: as §1

EW-24 (Ewing's Sarcoma) = tested on: EW-24 (Ewing's Sarcoma)
In short: as §1

[4] = tested on: EFM-19 (Breast Carcinoma)
In short: as §1

TK10 (Kidney Carcinoma) = tested on: TK10 (Kidney Carcinoma)
In short: as §1

YH-13 (Glioblastoma) = tested on: YH-13 (Glioblastoma)
In short: as §1

[5] = tested on: NCI-H358 (Lung Adenocarcinoma)
In short: as §1

D-263MG (Glioblastoma) = tested on: D-263MG (Glioblastoma)
In short: as §1

[6] = tested on: PANC-04-03 (Pancreatic Carcinoma)
In short: as §1

[7] = tested on: EoL-1-cell (Acute Myeloid Leukemia)
In short: as §1

Row | SMILES | combination Emax [1] | combination Emax [2] | combination Emax (UACC-62 (Melanoma)) | combination Emax [3] | combination Emax (TGW (Neuroblastoma)) | combination Emax (EW-24 (Ewing's Sarcoma)) | combination Emax [4] | combination Emax (TK10 (Kidney Carcinoma)) | combination Emax (YH-13 (Glioblastoma)) | combination Emax [5] | combination Emax (D-263MG (Glioblastoma)) | combination Emax [6] | combination Emax [7]
1 | O=C(c1cc(Cc2n[nH]c(=O)c3ccccc23)ccc1F)N1CCN(C(=O)C2CC2)CC1 [Olaparib] + COc1nnc2ccc(N3CCC(c4ccc(OCCN5CCN(C)C(=O)[C@H]5C)cc4)CC3)nn12 [AZD5153] (first compound max 10 µM, 7x7, partner max 1 µM) | 0.396 | 0.625 | 0.491 | 0.774 | 0.476 | 0.639 | 0.367 | 0.482 | 0.556 | 0.295 | 0.343 | 0.52 | 0.97
2 | C=CCn1c(=O)c2cnc(Nc3ccc(N4CCN(C)CC4)cc3)nc2n1-c1cccc(C(C)(C)O)n1 [AZD1775] + CCc1c2c(nc3ccc(O)cc13)-c1cc3c(c(=O)n1C2)COC(=O)[C@]3(O)CC [SN-38] (first compound max 1 µM, partner max 0.3 µM) | 0.537 | 0.965 | 0.745 | 0.971 | 0.728 | 0.782 | 0.743 | 0.612 | 0.741 | 0.687 | 0.641 | 0.617 | 1
3 | Cc1c2c(nn1C)CSCc1cc(n(C)n1)CSc1cc(c3ccccc3c1)OCCCc1c(C(=O)O)n(C)c3c-2c(Cl)ccc13 [AZD5991] + CC(=O)O[C@H]1C(=O)[C@@]2(C)[C@H]([C@H](OC(=O)c3ccccc3)[C@]3(O)C[C@H](OC(=O)[C@H](O)[C@@H](NC(=O)c4ccccc4)c4ccccc4)C(C)=C1C3(C)C)[C@]1(OC(C)=O)CO[C@@H]1C[C@@H]2O [Paclitaxel] (first compound max 1 µM, 7x7, partner max 3 µM) | 0.304 | 0.963 | 0.831 | 1 | 0.955 | 0.734 | 0.931 | 0.519 | 0.994 | 0.818 | 1 | 0.52 | 1
4 | O=C(c1cc(Cc2n[nH]c(=O)c3ccccc23)ccc1F)N1CCN(C(=O)C2CC2)CC1 [Olaparib] + Cc1c2c(nn1C)CSCc1cc(n(C)n1)CSc1cc(c3ccccc3c1)OCCCc1c(C(=O)O)n(C)c3c-2c(Cl)ccc13 [AZD5991] (first compound max 10 µM, 7x7, partner max 1 µM) | 0.0824 | 0.212 | 0.568 | 0.931 | 0.192 | 0.193 | 0.272 | 0.0994 | 0.187 | 0.197 | 0.562 | 0.0799 | 1
5 | O=C(c1cc(Cc2n[nH]c(=O)c3ccccc23)ccc1F)N1CCN(C(=O)C2CC2)CC1 [Olaparib] + CN(CC[C@H](CSC1=CC=CC=C1)NC2=C(C=C(C=C2)S(=O)(=O)NC(=O)C3=CC=C(C=C3)N4CCC(CC4)[C@H](C5=CC=CC=C5C6=CC=C(C=C6)Cl)O)S(=O)(=O)C(F)(F)F)CCO [AZD4320] (first compound max 10 µM, 7x7, partner max 1 µM) | 0.219 | 0.349 | 0.198 | 0.432 | 0.925 | 0.606 | 0.428 | 0.128 | 0.401 | 0.182 | 0.0474 | 0.121 | 1
6 | O=C(c1cc(Cc2n[nH]c(=O)c3ccccc23)ccc1F)N1CCN(C(=O)C2CC2)CC1 [Olaparib] + CC1(C)CCC(CN2CCN(c3ccc(C(=O)NS(=O)(=O)c4ccc(NCC5CCOCC5)c([N+](=O)[O-])c4)c(Oc4cnc5[nH]ccc5c4)c3)CC2)=C(c2ccc(Cl)cc2)C1 [Venetoclax] (first compound max 10 µM, 7x7, partner max 1 µM) | 0.135 | 0.229 | 0.213 | 0.306 | 0.429 | 0.195 | 0.194 | 0.0731 | 0.195 | 0.133 | 0.0634 | 0.176 | 0.99
7 | C[C@@H](Oc1cc(-c2cnn(C3CCNCC3)c2)cnc1N)c1c(Cl)ccc(F)c1Cl [Crizotinib] + Cn1cnc2c(F)c(Nc3ccc(Br)cc3Cl)c(C(=O)NOCCO)cc21 [Selumetinib] (first compound max 10 µM, 7x7, partner max 10 µM) | 0.516 | 0.542 | 0.782 | 0.895 | 0.69 | 0.545 | 0.224 | 0.367 | 0.446 | 0.587 | 0.308 | 0.631 | 1
8 | Cc1c2c(nn1C)CSCc1cc(n(C)n1)CSc1cc(c3ccccc3c1)OCCCc1c(C(=O)O)n(C)c3c-2c(Cl)ccc13 [AZD5991] + CS(=O)(=O)CCNCc1ccc(-c2ccc3ncnc(Nc4ccc(OCc5cccc(F)c5)c(Cl)c4)c3c2)o1 [Lapatinib] (first compound max 1 µM, 7x7, partner max 10 µM) | 0.188 | 0.933 | 0.576 | 0.952 | 0.312 | 0.32 | 0.364 | 0.56 | 0.186 | 0.478 | 0.458 | 0.343 | 1
9 | C[C@@H](Nc1cc(F)cc(F)c1)c1cc(C(=O)N(C)C)cc2c(=O)cc(N3CCOCC3)oc12 [AZD8186] + C1CN(CCC1(C(=O)N[C@@H](CCO)C2=CC=C(C=C2)Cl)N)C3=NC=NC4=C3C=CN4 [AZD5363] (first compound max 10 µM, 7x7, partner max 10 µM) | 0.336 | 0.296 | 0.514 | 0.263 | 0.258 | 0.447 | 0.432 | 0.454 | 0.644 | 0.33 | 0.284 | 0.275 | 0.816
10 | C[C@@H]1COCCN1c1cc(C2([S@](C)(=N)=O)CC2)nc(-c2ccnc3[nH]ccc23)n1 [AZD6738] + Nc1ccn([C@@H]2O[C@H](CO)[C@@H](O)C2(F)F)c(=O)n1 [Gemcitabine] (first compound max 10 µM, 7x7, partner max 0.3 µM) | 0.505 | 0.923 | 0.757 | 0.997 | 0.897 | 0.8 | 0.795 | – | 0.865 | 0.733 | 0.738 | 0.627 | 1
11 | Cc1c2c(nn1C)CSCc1cc(n(C)n1)CSc1cc(c3ccccc3c1)OCCCc1c(C(=O)O)n(C)c3c-2c(Cl)ccc13 [AZD5991] + Nc1ccn([C@@H]2O[C@H](CO)[C@@H](O)C2(F)F)c(=O)n1 [Gemcitabine] (first compound max 1 µM, 7x7, partner max 0.3 µM) | 0.332 | 0.68 | 0.753 | 0.979 | 0.621 | 0.672 | 0.573 | 0.346 | 0.574 | 0.381 | 0.894 | 0.548 | 1
12 | Cc1nc(-c2cn3c(n2)-c2ccc(-c4cnn(C(C)(C)C(N)=O)c4)cc2OCC3)n(C(C)C)n1 [Taselisib] + O=C(Nc1ccc2[nH]nc(-c3ccncc3)c2c1)[C@@H]1CCN(CC(=O)N2CCN(c3ccc(-c4ncccn4)cc3)CC2)C1 [SCH772984] (first compound max 10 µM, 7x7, partner max 5 µM) | 0.676 | 0.938 | 0.955 | 0.413 | 0.516 | 0.602 | 0.693 | 0.773 | 0.932 | 0.798 | 0.892 | 0.905 | 1
13 | CS(=O)(=O)CCNCc1ccc(-c2ccc3ncnc(Nc4ccc(OCc5cccc(F)c5)c(Cl)c4)c3c2)o1 [Lapatinib] + Cn1cnc2c(F)c(Nc3ccc(Br)cc3Cl)c(C(=O)NOCCO)cc21 [Selumetinib] (first compound max 10 µM, 7x7, partner max 10 µM) | 0.582 | 0.845 | 0.831 | 0.446 | 0.207 | 0.222 | 0.289 | 0.605 | 0.209 | 0.621 | 0.259 | 0.77 | 0.832
14 | C=CCn1c(=O)c2cnc(Nc3ccc(N4CCN(C)CC4)cc3)nc2n1-c1cccc(C(C)(C)O)n1 [AZD1775] + Nc1ccn([C@@H]2O[C@H](CO)[C@@H](O)C2(F)F)c(=O)n1 [Gemcitabine] (first compound max 1 µM, partner max 0.3 µM) | 0.42 | 0.834 | 0.73 | 0.976 | 0.809 | 0.658 | 0.614 | 0.456 | 0.662 | 0.516 | 0.622 | 0.526 | 1
15 | C[C@@H]1COCCN1c1cc(C2([S@](C)(=N)=O)CC2)nc(-c2ccnc3[nH]ccc23)n1 [AZD6738] + C1CC(C1)(C(=O)[O-])C(=O)[O-].N.N.[Pt+2] [Carboplatin] (first compound max 10 µM, 7x7, partner max 10 µM) | 0.442 | 0.895 | 0.246 | 0.926 | 0.574 | 0.703 | 0.211 | 0.634 | 0.576 | 0.505 | 0.386 | 0.455 | 0.97
